Several values for one entry are separate records, joined by “and”; a condition that tells them apart may be missing. Identical values can stand only once.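 Method: 48-hour compound exposure of cells in 96-well plates, five concentrations, linear interpolation of endpoints. At the GI50, growth is halved. Definition used: TGI = concentration required for complete inhibition of growth.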
Tests used:
Assay in all cases: inhibition of tumour cell growth, NCI panel, 48 h
NCI/ADR-RES ovarian = system: NCI/ADR-RES ovarian
CAKI-1 renal = system: CAKI-1 renal
IGROV1 ovarian = system: IGROV1 ovarian
K-562 leukemia = system: K-562 leukemia
OVCAR-5 ovarian = system: OVCAR-5 ovarian
HCT-116 colon = system: HCT-116 colon
U251 CNS = system: U251 CNS
SK-MEL-28 melanoma = system: SK-MEL-28 melanoma
MDA-MB-231 breast = system: MDA-MB-231 breast
MALME-3M melanoma = system: MALME-3M melanoma
A498 renal = system: A498 renal
SK-OV-3 ovarian = system: SK-OV-3 ovarian
MCF7 breast = system: MCF7 breast
HOP-92 NSCLC = system: HOP-92 NSCLC
CCRF-CEM leukemia = system: CCRF-CEM leukemia
BT-549 breast = system: BT-549 breast
OVCAR-3 ovarian = system: OVCAR-3 ovarian
T-47D breast = system: T-47D breast
LOX IMVI melanoma = system: LOX IMVI melanoma
SN12C renal = system: SN12C renal
SF-268 CNS = system: SF-268 CNS
COLO 205 colon = system: COLO 205 colon
OVCAR-8 ovarian = system: OVCAR-8 ovarian
SR leukemia = system: SR leukemia
SF-295 CNS = system: SF-295 CNS
UACC-62 melanoma = system: UACC-62 melanoma
HCT-15 colon = system: HCT-15 colon
NCI-H226 lung = system: NCI-H226 lung
MDA-MB-435 = system: MDA-MB-435
HL-60(TB) leukemia = system: HL-60(TB) leukemia
HS 578T breast = system: HS 578T breast
UACC-257 melanoma = system: UACC-257 melanoma
ACHN renal = system: ACHN renal
HT29 colon = system: HT29 colon
RXF 393 renal = system: RXF 393 renal
M14 melanoma = system: M14 melanoma
SK-MEL-5 melanoma = system: SK-MEL-5 melanoma
DU-145 prostate = system: DU-145 prostate
SNB-75 CNS = system: SNB-75 CNS
HOP-62 NSCLC = system: HOP-62 NSCLC
SNB-19 CNS = system: SNB-19 CNS
SK-MEL-2 melanoma = system: SK-MEL-2 melanoma
KM12 colon = system: KM12 colon
NCI-H522 lung = system: NCI-H522 lung
OVCAR-4 ovarian = system: OVCAR-4 ovarian
NCI-H460 lung = system: NCI-H460 lung
EKVX NSCLC = system: EKVX NSCLC
A549 NSCLC = system: A549 NSCLC
MOLT-4 leukemia = system: MOLT-4 leukemia
HCC-2998 colon = system: HCC-2998 colon
NCI-H23 lung = system: NCI-H23 lung
RPMI-8226 leukemia = system: RPMI-8226 leukemia
786-0 renal = system: 786-0 renal
SW-620 colon = system: SW-620 colon
UO-31 renal = system: UO-31 renal
TK-10 renal = system: TK-10 renal
SF-539 CNS = system: SF-539 CNS
PC-3 prostate = system: PC-3 prostate

`C[C@]12CC[C@H](OC3OC(O)C(O)C(O)C3O)C=C1CCC1C2CC[C@]2(C)[C@@H](c3ccc(=O)oc3)CC[C@]12O` (stereo not given in full) was tested, and the GI50 (NCI/ADR-RES ovarian) was 2.64 nM and 5 nM, the TGI (NCI/ADR-RES ovarian) was 7.55 nM and 6.47 nM and the GI50 (CAKI-1 renal) was 3.57 nM and 5 nM. For the same molecule, the TGI (CAKI-1 renal) was 24.8 nM and 17.3 nM, the GI50 (IGROV1 ovarian) was 4.64 nM and 5 nM and the GI50 (K-562 leukemia) was 4.06 nM. The TGI (K-562 leukemia) was 18.1 nM, the GI50 (OVCAR-5 ovarian) was 8.01 nM and 5 nM and the TGI (OVCAR-5 ovarian) was 25.2 nM and 11.9 nM. For the same molecule, the GI50 (HCT-116 colon) was 3.62 nM and 5 nM, the TGI (HCT-116 colon) was 11.9 nM and 6.71 nM and the GI50 (U251 CNS) was 3.82 nM and 5 nM. The TGI (U251 CNS) was 14.1 nM and 9.03 nM, the GI50 (SK-MEL-28 melanoma) was 5.85 nM and 6.06 nM and the TGI (SK-MEL-28 melanoma) was 20 nM and 13.8 nM. The GI50 (MDA-MB-231 breast) was 19.4 nM and 15.6 nM, the TGI (MDA-MB-231 breast) was 100 nM and 60.2 nM and the GI50 (MALME-3M melanoma) was 3.28 nM and 5 nM. For the same molecule, the TGI (MALME-3M melanoma) was 9.89 nM and 11.8 nM, the GI50 (A498 renal) was 3.45 nM and 5 nM and the TGI (A498 renal) was 48.3 nM and 23.7 nM. The GI50 (SK-OV-3 ovarian) was 3.65 nM and 5 nM, the TGI (SK-OV-3 ovarian) was 12 nM and 6.59 nM and the GI50 (MCF7 breast) was 3.42 nM and 5 nM. For the same molecule, the TGI (MCF7 breast) was 65.4 nM and 14.4 nM, the GI50 (HOP-92 NSCLC) was 3.94 nM and 7.24 nM and the TGI (HOP-92 NSCLC) was 34.2 nM and 29.2 nM. The GI50 (CCRF-CEM leukemia) was 5 nM, the TGI (CCRF-CEM leukemia) was 50000 nM and the GI50 (BT-549 breast) was 3.59 nM and 5 nM. The TGI (BT-549 breast) was 11.8 nM and 6.59 nM, the GI50 (OVCAR-3 ovarian) was 3.8 nM and 5 nM and the TGI (OVCAR-3 ovarian) was 12.1 nM and 6.38 nM. For the same molecule, the GI50 (T-47D breast) was 4.04 nM and 5 nM, the TGI (T-47D breast) was 19.8 nM and 16.6 nM and the GI50 (LOX IMVI melanoma) was 3.33 nM and 5 nM. The TGI (LOX IMVI melanoma) was 12 nM and 7.7 nM, the GI50 (SN12C renal) was 3.04 nM and 5 nM and the TGI (SN12C renal) was 17 nM and 9.65 nM. The GI50 (SF-268 CNS) was 3.73 nM and 5 nM, the TGI (SF-268 CNS) was 12.8 nM and 6.07 nM and the GI50 (COLO 205 colon) was 15.3 nM and 7.93 nM. For the same molecule, the TGI (COLO 205 colon) was 35.8 nM and 17.1 nM, the GI50 (OVCAR-8 ovarian) was 3.67 nM and 5 nM and the TGI (OVCAR-8 ovarian) was 16.8 nM and 7.2 nM. The GI50 (SR leukemia) was 2.21 nM, the TGI (SR leukemia) was 6.19 nM and the GI50 (SF-295 CNS) was 3.16 nM and 5 nM. The TGI (SF-295 CNS) was 80.9 nM and 13 nM, the GI50 (UACC-62 melanoma) was 6.26 nM and 7.83 nM and the TGI (UACC-62 melanoma) was 21.4 nM and 17.6 nM. For the same molecule, the GI50 (HCT-15 colon) was 4.65 nM and 5 nM, the TGI (HCT-15 colon) was 21.8 nM and 15.5 nM and the GI50 (NCI-H226 lung) was 2.62 nM and 5.27 nM. For the same molecule, the TGI (NCI-H226 lung) was 8.62 nM and 11.3 nM, the GI50 (MDA-MB-435) was 4.03 nM and 5.78 nM and the TGI (MDA-MB-435) was 21.2 nM and 19.2 nM. It also gave a GI50 (HL-60(TB) leukemia) of 2.27 nM, a TGI (HL-60(TB) leukemia) of 5.12 nM and a GI50 (HS 578T breast) of 2.24 nM. For the same molecule, the TGI (HS 578T breast) was 50.6 nM, the GI50 (UACC-257 melanoma) was 10.6 nM and 5.17 nM and the TGI (UACC-257 melanoma) was 24.2 nM and 11.5 nM. The GI50 (ACHN renal) was 3.49 nM and 5 nM, the TGI (ACHN renal) was 11.9 nM and 5.78 nM and the GI50 (HT29 colon) was 4.52 nM and 5 nM. The TGI (HT29 colon) was 17.6 nM and 9.16 nM, the GI50 (RXF 393 renal) was 1.79 nM and the TGI (RXF 393 renal) was 3.9 nM. The GI50 (M14 melanoma) was 14.8 nM and 9.18 nM, the TGI (M14 melanoma) was 29.9 nM and 19.9 nM and the GI50 (SK-MEL-5 melanoma) was 1.96 nM and 5 nM. The TGI (SK-MEL-5 melanoma) was 4.28 nM and 6.32 nM, the GI50 (DU-145 prostate) was 2.77 nM and the TGI (DU-145 prostate) was 6.98 nM. For the same molecule, the GI50 (SNB-75 CNS) was 3.21 nM and 5 nM, the TGI (SNB-75 CNS) was 15.7 nM and 6.16 nM and the GI50 (HOP-62 NSCLC) was 1.78 nM. The TGI (HOP-62 NSCLC) was 3.28 nM, the GI50 (SNB-19 CNS) was 6.88 nM and 5 nM and the TGI (SNB-19 CNS) was 50.6 nM and 28.7 nM. The GI50 (SK-MEL-2 melanoma) was 3.53 nM and 7.62 nM, the TGI (SK-MEL-2 melanoma) was 10.3 nM and 17.7 nM and the GI50 (KM12 colon) was 4.87 nM and 5 nM. For the same molecule, the TGI (KM12 colon) was 25.8 nM and 26.6 nM, the GI50 (NCI-H522 lung) was 2.86 nM and the TGI (NCI-H522 lung) was 11.4 nM. For the same molecule, the GI50 (OVCAR-4 ovarian) was 2.98 nM, the TGI (OVCAR-4 ovarian) was 16.7 nM and the GI50 (NCI-H460 lung) was 2.42 nM and 5 nM. The TGI (NCI-H460 lung) was 6.33 nM and 5.12 nM, the GI50 (EKVX NSCLC) was 2.86 nM and 5 nM and the TGI (EKVX NSCLC) was 9.07 nM and 5.58 nM. For the same molecule, the GI50 (A549 NSCLC) was 1.78 nM, the TGI (A549 NSCLC) was 3.58 nM and the GI50 (MOLT-4 leukemia) was 2.34 nM. For the same molecule, the TGI (MOLT-4 leukemia) was 5.3 nM, the GI50 (HCC-2998 colon) was 4.67 nM and 5 nM and the TGI (HCC-2998 colon) was 25.2 nM and 16.5 nM. The GI50 (NCI-H23 lung) was 2.93 nM, the TGI (NCI-H23 lung) was 11.4 nM and the GI50 (RPMI-8226 leukemia) was 4.39 nM. The TGI (RPMI-8226 leukemia) was 74.8 nM, the GI50 (786-0 renal) was 2.59 nM and 5 nM and the TGI (786-0 renal) was 7 nM and 5.73 nM. For the same molecule, the GI50 (SW-620 colon) was 4.45 nM and 5 nM, the TGI (SW-620 colon) was 25.4 nM and 15.4 nM and the GI50 (UO-31 renal) was 4.64 nM and 5 nM. The TGI (UO-31 renal) was 16.8 nM and 8.11 nM, the GI50 (TK-10 renal) was 5.08 nM and the TGI (TK-10 renal) was 42.2 nM. For the same molecule, the GI50 (SF-539 CNS) was 2.62 nM and 5 nM, the TGI (SF-539 CNS) was 6.21 nM and 5.68 nM and the GI50 (PC-3 prostate) was 3.84 nM. For the same molecule, the TGI (PC-3 prostate) was 22.1 nM.
